Experiments:
[1] = Plasma clearance in BALB/C mouse at 5 mg/kg, iv; assay type: ADME, organism-based; parameters: dose 5 mg/kg, route intravenous
[2] = Metabolic stability in Sprague-Dawley rat liver microsomes assessed as compound remaining at 1 uM after 15 mins; assay type: ADME, Microsome; settings: read-out: Stability
[3] = Metabolic stability in CD-1 mouse liver microsomes assessed as compound remaining at 1 uM after 15 mins; assay type: ADME, Microsome; settings: read-out: Stability
[4] = Metabolic stability in human liver microsomes assessed as compound remaining at 1 uM after 15 mins; assay type: ADME, Microsome; settings: read-out: Stability
[5] = Half life in BALB/C mouse plasma at 5 mg/kg, iv; assay type: ADME, organism-based; parameters: dose 5 mg/kg, route intravenous

COc1cc(NCC2CCNCC2)nc2c1nnn2-c1cccc(OC(F)(F)F)c1
clearance [1]: 54.7 mL/min/kg
remaining at […], 1 µM [2]: 91%
remaining at […], 1 µM [3]: 80%
remaining at […], 1 µM [4]: 97%
half-life [5]: 57 min

From ChEMBL document CHEMBL1949661, “Hit to lead evaluation of 1,2,3-triazolo[4,5-b]pyridines as PIM kinase inhibitors” (Bioorg Med Chem Lett, 2012)
